# Measurements reported in patent US8362001B2, “Azetidinyl diamides as monoacylglycerol lipase inhibitors” (Janssen Pharmaceutica NV, priority 2009, dated 2013).
# Positions count from the first letter of the chain named.
# What was measured:
# rat = test: CFA-induced paw radiant heat hypersensitivity; type: in vivo; conditions: 30 mg/kg p.o., HPβCD, last time point 300 min, group mean values
# Description: Each rat was placed in a test chamber on a warm glass surface and allowed to acclimate for approximately 10 min. A radiant thermal stimulus (beam of light) was then focused through the glass onto the plantar surface of each hind paw in turn. The thermal stimulus was automatically shut off by a photoelectric relay when the paw was moved or when the cut-off time was reached (20 sec for radiant heat at ˜5 amps). An initial (baseline) response latency to the thermal stimulus was recorded for each animal prior to the injection of complete Freund's adjuvant (CFA). 24 h following intraplantar CFA injection, the response latency of the animal to the thermal stimulus was then re-evaluated and compared to the animal's baseline response time. […] Post-compound treatment withdrawal latencies were assessed at fixed time intervals, typically 30, 60, 120, 180, and 300 min.
# The percent reversal (% R) of hypersensitivity was calculated in one of two different ways: 1) using group mean values or 2) using individual animal values. […]
# Method 1. For all compounds, the % R of hypersensitivity was calculated using the mean value for groups of animals at each time point according to the following formula: % reversal=[(group treatment response−group CFA response)/(group baseline response−group CFA response)]×100 Results are given for the maximum % reversal observed for each compound at any time point tested. […]
# [1] = biological target: T1, purified wild type MGL (wt-MGLL 6H-11-313) (Homo sapiens, UniProt Q99685); test: biochemical
# T1 sequence (Q99685 1-303): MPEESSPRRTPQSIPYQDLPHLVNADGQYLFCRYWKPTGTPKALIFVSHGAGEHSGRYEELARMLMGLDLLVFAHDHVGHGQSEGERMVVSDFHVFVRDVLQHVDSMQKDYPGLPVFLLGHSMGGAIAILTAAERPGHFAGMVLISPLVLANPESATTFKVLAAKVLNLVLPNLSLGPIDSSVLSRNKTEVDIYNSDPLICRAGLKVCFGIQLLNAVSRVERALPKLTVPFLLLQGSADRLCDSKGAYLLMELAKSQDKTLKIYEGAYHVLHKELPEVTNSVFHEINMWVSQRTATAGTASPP
# mutant MGL = biological target: T2, mutant MGL (Homo sapiens, UniProt Q99685, L169S/L176S); test: MGL ThermoFluor assay - mutant
# T2 sequence (Q99685 1-303 L169S/L176S): T1 sequence (Q99685 1-303) with L169S, L176S
# Description: The ThermoFluor (TF) assay is a 384-well plate-based binding assay that measures thermal stability of proteins^1,2. […] TF dye used in all experiments was 1,8-ANS (Invitrogen: A-47). Final TF assay conditions used for MGL studies were 0.07 mg/ml of mutant MGL, 100 μM ANS, 200 mM NaCl, 0.001% Tween-20 in 50 mM PIPES (pH=7.0).
# Screening compound plates contained 100% DMSO compound solutions at a single concentration. […] Columns 12 and 24 were used as DMSO reference and contained no compound. […] Following compound dispension, protein and dye solutions were added to achieve the final assay volume of 3 μL.
# Bar-coded assay plates were robotically loaded onto a thermostatically controlled PCR-type thermal block and then heated from 40 to 90° C. degrees at a ramp-rate of 1° C./min for all experiments. Fluorescence was measured by continuous illumination with UV light (Hamamatsu LC6), supplied via fiber optics and filtered through a band-pass filter (380-400 nm; >60D cutoff). Fluorescence emission of the entire 384-well plate was detected by measuring light intensity using a CCD camera (Sensys, Roper Scientific) filtered to detect 500±25 nm, resulting in simultaneous and independent readings of all 384 wells. A single image with 20-sec exposure time was collected at each temperature, and the sum of the pixel intensity in a given area of the assay plate was recorded vs temperature and fit to standard equations to yield the Tm^1. • 1.
# For some experiments, quantitative NMR spectroscopy (qNMR) was used to measure concentration of the initial 100% DMSO compound solutions and, using the same fitting method, qKd values were determined
# MGL = biological target: T3, MGL (Rattus norvegicus, UniProt Q8R431); test: 2-AG accumulation assay in rat brain homogenate; type: biochemical; conditions: compound 1 μM, percent vehicle = 2-AG accumulation with compound / in vehicle x 100, read-out: Rat Brain 2AG % VehCntrl (%) @1 μM
# T3 construct: one g rat brain was homogenized using a Polytron homogenizer; from tissue; host or cells: rat brain homogenate
# T3 sequence (Q8R431 1-303): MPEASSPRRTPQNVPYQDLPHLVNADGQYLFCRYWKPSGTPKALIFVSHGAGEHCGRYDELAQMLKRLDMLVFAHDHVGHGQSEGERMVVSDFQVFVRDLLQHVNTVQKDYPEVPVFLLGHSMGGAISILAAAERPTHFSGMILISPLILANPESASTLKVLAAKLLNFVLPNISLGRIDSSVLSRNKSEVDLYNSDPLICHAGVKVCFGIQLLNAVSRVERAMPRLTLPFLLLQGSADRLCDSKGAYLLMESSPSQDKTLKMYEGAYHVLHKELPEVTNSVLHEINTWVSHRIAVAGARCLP
IC50 [1] [nM],Kd (mutant MGL) [nM],SMILES,further results
< 5,40,"O=C(c1ccc2c(ccn2-c2ccc(C(F)(F)F)cc2)c1)N1CCN(C2CN(C(=O)c3cscn3)C2)CC1 [Cpd 1337, 5-({4-[1-(1,3-Thiazol-4-ylcarbonyl)azetidin-3-yl]piperazin-1-yl}carbonyl)-1-[4-(trifluoromethyl)phenyl]-1H-indole]",–
49,48,"O=C(c1ccccc1)N1CCN(C2CN(C(=O)c3ccc4c(c3)c(F)cn4-c3ccc(F)cc3)C2)CC1 [Cpd 574, 3-Fluoro-1-(4-fluorophenyl)-5-({3-[4-(phenylcarbonyl)piperazin-1-yl]azetidin-1-yl}carbonyl)-1H-indole]",–
< 5,2,"O=C(c1ccc(-c2cccc(C(F)(F)F)c2)cc1)N1CC(N2CCN(C(=O)c3ccc(F)s3)CC2)C1 [Cpd 1336, 1-[(5-Fluorothiophen-2-yl)carbonyl]-4-(1-{[3′-(trifluoromethyl)biphenyl-4-yl]carbonyl}azetidin-3-yl)piperazine]",–

# The next lines start with the compound.
SMILES,IC50 [1] [nM],Kd (mutant MGL) [nM],further results
C/C(=C\c1ccc(Cl)cc1)c1c(C)c(C(=O)N2CC(N3CCN(C(=O)c4nccs4)CC3)C2)nn1-c1ccc(Cl)cc1Cl [Cpd 1010],–,–,"inhibition in vivo at 30 mg/kg (rat; Rattus norvegicus, po, 5 h, read-out: Method 1: peak % reversal): 23.4%"
O=C(c1ccc(-c2cccc(C(F)(F)F)c2)c(Cl)c1)N1CC(N2CCN(C(=O)c3cscn3)CC2)C1 [Cpd 1102],–,–,Method 1: peak % reversal (rat): 38%
"Cc1cn(-c2ccc(F)c(F)c2)c2ccc(C(=O)N3CCN(C4CN(C(=O)c5ccc[nH]5)C4)CC3)cc12 [Cpd 1219, 1-(3,4-Difluorophenyl)-3-methyl-5-({4-[1-(1H-pyrrol-2-ylcarbonyl)azetidin-3-yl]piperazin-1-yl}carbonyl)-1H-indole]",235,25,–
"O=C(c1ccc[nH]1)N1CC(N2CCN(C(=O)c3cc4cc(C(F)(F)F)ccc4s3)CC2)C1 [Cpd 722, 1-[1-(1H-Pyrrol-2-ylcarbonyl)azetidin-3-yl]-4-{[5-(trifluoromethyl)-1-benzothiophen-2-yl]carbonyl}piperazine]",–,–,activity at 1 µM (MGL): 240%
"Cc1nc(C(=O)N2CCN(C3CN(C(=O)c4ccc(-c5cccc(C(F)(F)F)c5)cc4)C3)CC2)cs1 [Cpd 1217, 1-[(2-Methyl-1,3-thiazol-4-yl)carbonyl]-4-(1-{[3′-(trifluoromethyl)biphenyl-4-yl]carbonyl}azetidin-3-yl)piperazine]",220,104,–
